According to ChEMBL document CHEMBL3045946, “Synthesis and biological activity studies of new hybrid molecules containing tryptamine moiety” (2012):
The source made the active and inactive calls. The calls are words filed in the database; no cut-off is given here.

What was measured:
Candida tropicalis = assay: Antifungal activity against Candida tropicalis after 18 hr by agar well diffusion method; assay type: functional, organism-based
Saccharomyces cerevisiae = assay: Antifungal activity against Saccharomyces cerevisiae RSKK 251 after 18 hr by agar well diffusion method; assay type: functional, organism-based
Candida albicans = assay: Antifungal activity against Candida albicans ATCC 60193 after 18 hr by agar well diffusion method; assay type: functional, organism-based
[1] = test system: Mycolicibacterium smegmatis; assay: Antibacterial activity against Mycobacterium smegmatis ATCC 607 after 18 hr by agar well diffusion method; assay type: functional
Bacillus cereus [2] = assay: Antibacterial activity against Bacillus cereus 702 Roma after 18 hr by agar well diffusion method; assay type: functional
Enterococcus faecalis [3] = assay: Antibacterial activity against Enterococcus faecalis ATCC 29212 after 18 hr by agar well diffusion method; assay type: functional
Staphylococcus aureus [4] = assay: Antibacterial activity against Staphylococcus aureus ATCC 25923 after 18 hr by agar well diffusion method; assay type: functional
Pseudomonas aeruginosa [5] = assay: Antibacterial activity against Pseudomonas aeruginosa ATCC 43288 after 18 hr by agar well diffusion method; assay type: functional
Staphylococcus aureus [6] = assay: Antibacterial activity against Staphylococcus aureus ATCC 25923 at 10 mg after 18 hr by agar well diffusion method; assay type: functional; conditions: ATCC 25923, 18 h, read-out: IZ
Bacillus cereus [7] = assay: Antibacterial activity against Bacillus cereus 702 Roma at 10 mg after 18 hr by agar well diffusion method; assay type: functional; conditions: read-out: IZ
Enterococcus faecalis [8] = assay: Antibacterial activity against Enterococcus faecalis ATCC 29212 at 10 mg after 18 hr by agar well diffusion method; assay type: functional; conditions: ATCC 29212, 18 h, read-out: IZ
Pseudomonas aeruginosa [9] = assay: Antibacterial activity against Pseudomonas aeruginosa ATCC 43288 at 10 mg after 18 hr by agar well diffusion method; assay type: functional; conditions: ATCC 43288, 18 h, read-out: IZ

Row | Compound | Activity (Candida tropicalis) | Activity (Saccharomyces cerevisiae) | Activity (Candida albicans) | inhibition zone (IZ) [1] [mm] | inhibition zone (IZ) (Bacillus cereus [2]) [mm] | Activity (Enterococcus faecalis [3]) | inhibition zone (IZ) (Staphylococcus aureus [4]) [mm] | inhibition zone (IZ) (Pseudomonas aeruginosa [5]) [mm] | Activity [1] | Activity (Bacillus cereus [2]) | Activity (Staphylococcus aureus [4]) | Activity (Pseudomonas aeruginosa [5]) | zone of inhibition at 10000 µg/disc (Staphylococcus aureus [6]) [mm] | zone of inhibition at 10000 µg/disc (Bacillus cereus [7]) [mm] | zone of inhibition at 10000 µg/disc (Enterococcus faecalis [8]) [mm] | zone of inhibition at 10000 µg/disc (Pseudomonas aeruginosa [9]) [mm] | inhibition zone (IZ) (Enterococcus faecalis [3]) [mm]
1 | Cc1ccc(Cc2nn(CC(=O)NNS(=O)(=O)c3ccc(Cl)cc3)c(=O)n2CCc2c[nH]c3ccccc23)cc1 | inactive | inactive | inactive | 9 | 10 | inactive | 7 | 10 | – | – | – | – | – | – | – | – | –
2 | Cc1ccc(Cc2nn(CC(=O)N/N=C/c3ccc[nH]3)c(=O)n2CCc2c[nH]c3ccccc23)cc1 | inactive | inactive | inactive | – | – | inactive | – | – | inactive | inactive | inactive | inactive | – | – | – | – | –
3 | Cc1ccc(Cc2nn(CC(=O)N/N=c3\scc(-c4ccc(Cl)cc4)n3-c3ccccc3)c(=O)n2CCc2c[nH]c3ccccc23)cc1 | inactive | inactive | inactive | – | – | inactive | – | – | inactive | inactive | inactive | inactive | – | – | – | – | –
4 | CC1(C)S[C@@H]2[C@H](NC(=O)[C@H](N)c3ccccc3)C(=O)N2[C@H]1C(=O)O [AMPICILLIN] | – | – | – | – | – | – | – | – | – | – | – | – | 35 | 15 | 10 | 18 | –
5 | CN[C@@H]1[C@H](O[C@H]2[C@H](O[C@H]3[C@H](O)[C@@H](O)[C@H](N=C(N)N)[C@@H](O)[C@@H]3N=C(N)N)O[C@@H](C)[C@]2(O)C=O)O[C@@H](CO)[C@H](O)[C@H]1O [STREPTOMYCIN] | – | – | – | 35 | – | – | – | – | – | – | – | – | – | – | – | – | –
6 | Cc1ccc(Cc2nn(CC(=O)N/N=C/c3ccccn3)c(=O)n2CCc2c[nH]c3ccccc23)cc1 | inactive | inactive | inactive | – | – | inactive | – | – | inactive | inactive | inactive | inactive | – | – | – | – | –
7 | O=C(Cn1nc(Cc2ccc(Cl)cc2)n(CCc2c[nH]c3ccccc23)c1=O)NNS(=O)(=O)c1ccc(Cl)cc1 | inactive | inactive | inactive | 14 | 12 | – | 11 | 12 | – | – | – | – | – | – | – | – | –
8 | Cc1ccc(Cc2nn(Cc3nnc(S)o3)c(=O)n2CCc2c[nH]c3ccccc23)cc1 | inactive | inactive | inactive | 8 | 8 | – | 12 | – | – | – | – | inactive | – | – | – | – | 12
9 | O=C(Cn1nc(Cc2ccc(Cl)cc2)n(CCc2c[nH]c3ccccc23)c1=O)N/N=C/c1ccc[nH]1 | inactive | inactive | inactive | 6 | – | inactive | – | – | – | inactive | inactive | inactive | – | – | – | – | –
10 | O=C(Cn1nc(Cc2ccc(Cl)cc2)n(CCc2c[nH]c3ccccc23)c1=O)NNC(=O)NCc1ccccc1 | inactive | inactive | inactive | – | – | inactive | – | – | inactive | inactive | inactive | inactive | – | – | – | – | –
11 | O=C(Cn1nc(Cc2ccc(Cl)cc2)n(CCc2c[nH]c3ccccc23)c1=O)N/N=c1\occ(-c2ccc(Cl)cc2)n1Cc1ccccc1 | inactive | inactive | inactive | – | 6 | inactive | 5 | – | inactive | – | – | inactive | – | – | – | – | –
12 | Cc1ccc(Cc2nn(Cc3nnc(S)n3N)c(=O)n2CCc2c[nH]c3ccccc23)cc1 | inactive | inactive | inactive | 6 | 7 | inactive | – | – | – | – | inactive | inactive | – | – | – | – | –
13 | COc1ccc(/C=N/NC(=O)Cn2nc(Cc3ccc(Cl)cc3)n(CCc3c[nH]c4ccccc34)c2=O)cc1 | inactive | inactive | inactive | – | – | inactive | – | – | inactive | inactive | inactive | inactive | – | – | – | – | –
14 | Cc1ccc(Cc2nn(Cc3n[nH]c(=O)n3Cc3ccccc3)c(=O)n2CCc2c[nH]c3ccccc23)cc1 | inactive | inactive | inactive | 10 | 7 | inactive | – | 6 | – | – | inactive | – | – | – | – | – | –
15 | Nn1c(S)nnc1Cn1nc(Cc2ccc(Cl)cc2)n(CCc2c[nH]c3ccccc23)c1=O | inactive | inactive | inactive | 7 | 7 | inactive | – | – | – | – | inactive | inactive | – | – | – | – | –
16 | O=C(Cn1nc(Cc2ccc(Cl)cc2)n(CCc2c[nH]c3ccccc23)c1=O)NNS(=O)(=O)c1ccc(Br)cc1 | inactive | inactive | inactive | 9 | 12 | inactive | 8 | 12 | – | – | – | – | – | – | – | – | –
17 | Cc1ccc(Cc2nn(CC(=O)NNC(=S)Nc3ccccc3)c(=O)n2CCc2c[nH]c3ccccc23)cc1 | inactive | inactive | inactive | – | – | inactive | – | – | inactive | inactive | inactive | inactive | – | – | – | – | –
18 | COc1ccc(/C=N/NC(=O)Cn2nc(Cc3ccc(C)cc3)n(CCc3c[nH]c4ccccc34)c2=O)cc1 | inactive | inactive | inactive | – | – | inactive | – | – | inactive | inactive | inactive | inactive | – | – | – | – | –
19 | O=c1n(Cc2nnc(S)o2)nc(Cc2ccc(Cl)cc2)n1CCc1c[nH]c2ccccc12 | inactive | inactive | inactive | – | 6 | – | 8 | – | inactive | – | – | inactive | – | – | – | – | 10
20 | O=C(Cn1nc(Cc2ccc(Cl)cc2)n(CCc2c[nH]c3ccccc23)c1=O)N/N=C/Cc1ccccc1 | inactive | inactive | inactive | – | – | inactive | – | – | inactive | inactive | inactive | inactive | – | – | – | – | –
21 | COc1ccc(/C=N/n2c(S)nnc2Cn2nc(Cc3ccc(C)cc3)n(CCc3c[nH]c4ccccc34)c2=O)cc1 | inactive | inactive | inactive | 6 | 12 | inactive | 11 | 12 | – | – | – | – | – | – | – | – | –
22 | Cc1ccc(Cc2nn(CC(=O)NNS(=O)(=O)c3ccc(Br)cc3)c(=O)n2CCc2c[nH]c3ccccc23)cc1 | inactive | inactive | inactive | 7 | 8 | inactive | – | 10 | – | – | inactive | – | – | – | – | – | –
23 | O=c1[nH]nc(Cn2nc(Cc3ccc(Cl)cc3)n(CCc3c[nH]c4ccccc34)c2=O)n1Cc1ccccc1 | inactive | inactive | inactive | 10 | 12 | inactive | – | 10 | – | – | inactive | – | – | – | – | – | –
